Reference: patent US8900549B2, “Compositions and methods for delivering a substance to a biological target” (The General Hospital Corporation, priority 2008, dated 2014)

Tests used:
PtK2 rat kidney cells = assay: Live cell labeling and confocal imaging of trans-cyclooctene taxol with tetrazine probes; format: cell-based, rat kangaroo; conditions: for staining of intracellular structures by confocal microscopy: 1 μM trans-cyclooctene taxol 1 hour 37° C., wash, then 1 μM tetrazine probe 20 minutes room temperature
Description: For live cell studies, PtK2 […] cells were incubated in cell media containing 1 μM trans-cyclooctene taxol for 1 hour at 37° C. After washing with media three times, the cells were exposed to media containing 1 μM tetrazine-BODIPY FL for 20 minutes at room temperature. The cells were then washed and imaged on a confocal microscope. […] Taxol® is known to bind the microtubular networks of cells and there have been several reports of fluorescent taxol derivatives that can be used to image microtubular networks (Evangelio et al., 1998, Cell Motil Cytoskeleton, 39, 73-90; Guy et al., 1996, Chem Biol, 3, 1021-31; Souto et al., 1995, Angew. Chem. Int. Ed., 34, 2710-2712). In addition to tubular structures, the perinuclear region was stained. This staining is due to nonspecific uptake of the taxol analog by intracellular membranes such as the endoplasmic reticulum and Golgi.

EGFR on A549 cells = assay: Pretargeted live cell labeling with trans-cyclooctene cetuximab and tetrazine-VT680, confocal microscopy; format: cell-based, human
Description: The human lung adenocarcinoma epithelial cell line A549 was selected for all experiments due to its mid-level over-expression of EGFR. The cell line was maintained in a standard ATCC formulated F-12K media supplemented with 10% fetal bovine serum and 5% penicillin/streptomycin.
Cells were grown on break away glass chamber slides and washed six times after administering either imaging agent. A multichannel upright laser-scanning confocal microscope (FV1000; Olympus) was used to image live cells with a 60× water immersion objective lens. Image collection and fluorophore excitations with lasers at 488 nm (EGFP), 543 nm (AF555), and 633 nm (VT680) were done serially to avoid cross talk between channels. Data were acquired with Fluoview software (version 4.3; Olympus) and image stacks were processed and analyzed with ImageJ software (version 1.41, Bethesda Md.).
Direct labeling of the antibodies with AF555 was monitored in the red channel.

[1] = tested on: trans-cyclooctene bound to antibody; assay: Kinetic measurements of tetrazine cycloaddition to surface-absorbed trans-cyclooctene modified antibody; format: physicochemical; conditions: PBS at 37° C.; 375, 750 and 1000 nM tetrazine; slope of pseudo first order rate constants versus concentration
Description: trans-cyclooctene modified antibody was physically absorbed onto polystyrene by immersing the surfaces in a 0.1 mg/mL solution of antibody in PBS for 3 hours. After numerous washes with PBS, the surface was exposed to 750 nM tetrazine VT680 in PBS at 37° C. After 5 minutes, the tetrazine solution was removed and the surface washed 3 times with PBS. The fluorescence due to the VT680 dye was measured on a fluorescence plate reader (Tecan Safire 2) and corrected for background fluorescence. The surface was again exposed to the tetrazine solution and the entire process repeated at 10, 15, 30, and 60 minutes. The fluorescence measurements were plotted versus time, fitted to a first order exponential growth curve and the pseudo first order rate constant determined The entire experiment was repeated using two different concentrations of tetrazine (375 nM and 1000 nM) and the pseudo first order rate constants from all three experiments were plotted versus concentration, fitted to a straight line; the slope of the line was 6000±200 M−1sec−1 and was reported at the second order rate constant for the reaction between tetrazine VT680 and trans-cyclooctene bound to antibody.

[2] = tested on: Her2/neu growth factor receptors on SKBR-3 human mammary carcinoma cells; assay: Live cell labeling with norbornene-modified trastuzumab and tetrazine-VT680, fluorescence microscopy; format: cell-based
Text: Norbornene carboxylic acid ((1S,2S,4S)-bicyclo[2.2.1]hept-5-en-2-yl acetic acid) was stirred for three hours with 1.1 equivalents of disuccinimidyl carbonate in acetontrile using 1 equivalent of pyridine as base. After reaction, solvent and base were removed by rotary evaporation and the crude norbornene succinimidyl ester with N-hydroxysuccinimide side product was recovered. Commercially purchased humanized anti-HER2/neu antibody trastuzumab (Genentech, San Francisco, Calif.) in 0.1M sodium bicarbonate buffer (pH 8.2) was incubated for three hours at room temperature with a 5 molar excess of 5-(and-6)-carboxytetramethylrhodamine, succinimidyl ester (Invitrogen) and a 30 molar excess of crude norbornene succinimidyl ester. The antibody was then isolated and washed by centrifuge purification and stored in PBS buffer. Control antibody was modified in an identical manner but excluding the norbornene NHS.
SKBR-3 human mammary carcinoma cell lines were maintained in complete McCoy's medium. Cells were incubated at 37° C. with 200 nM modified trastuzumab for 30 minutes and then washed twice with 10% fetal bovine serum (FBS) in Hanks balanced salt solution (HBSS). Tetrazine labeling was performed by incubating the cells for 30 minutes at 37° C. in 10% FBS/HBSS containing 50 μM of tetrazine-VT680. Cells were then washed twice with 10% FBS/HBSS and imaged with by fluorescence microscopy.

tubulin = assay: Tubulin polymerization assay in the absence of GTP (optical density at 350 nm); format: biochemical; conditions: tubulin monomer, versus DMSO control
Text: To test the activity of the trans-cyclooctene taxol analog, we tested for the well known ability of Taxol® to polymerize tubulin in the absence of GTP (Shelanski et al., 1973, Proc Natl Acad Sci USA, 70, 765-8; Schiff and Horwitz, 1981, Biochemistry, 20, 3247-52). Optical density measurements at 350 nm (FIG. 6B) were used to determine the degree of tubulin polymerization after exposure of tubulin monomer to Taxol®, trans-cyclooctene taxol, and a DMSO control. […] Taxol trans-cyclooctene induced tubule bundles could be visualized by subsequent staining with tetrazine fluorophore probes such as tetrazine-BODIPY FL yielding brightly fluorescent tubule structures that could be imaged by fluorescent microscopy (FIG. 6c).

In the case of “3-(p-Benzylamino)-tetrazine-VT680 Conjugate”, the “staining of intracellular structures by confocal microscopy” value (from here on “staining of intracellular structures”) (PtK2 rat kidney cells) is reported as “showed intracellular structures reflecting microtubule networks”, the “staining of intracellular structures” value (PtK2 rat kidney cells; listed as sulfonated Vivo-Tag 680 tetrazine) is reported as “very little staining and an absence of tubular structures” and the “colocalization of NIR (VT680) signal with AF555-labeled antibody” value (EGFR on A549 cells; A549 cells pretargeted with AF555-labeled trans-cyclooctene cetuximab, then tetrazine-VT680) is reported as “excellent colocalization of the AF555 and VT680 signals with little background fluorescence”. For the same molecule, the “NIR fluorescence in control experiments” value (EGFR on A549 cells; unlabeled cetuximab and tetrazine-VT680, or trans-cyclooctene-cetuximab and unlabeled VT680) was “no NIR fluorescence” and the “second order rate constant” value [1] was 6000 ± 200 M⁻¹ s⁻¹.

For “5-(4-(1,2,4,5-Tetrazin-3-yl)benzylamino)-5-oxopentanoic Acid [Example 3]”, the “labeling of cells in rhodamine and NIR fluorescence channels” value ([2]; 200 nM norbornene- and rhodamine-modified trastuzumab 30 minutes, then 50 μM tetrazine-VT680 30 minutes 37° C. in 10% FBS/HBSS) was “Significant labeling, which colocalizes” and the “NIR labeling with control antibody” value ([2]; control antibody containing rhodamine but not norbornene) was “no NIR labeling”.

CC(=O)O[C@H]1C(=O)[C@@]2(C)[C@H]([C@H](OC(=O)c3ccccc3)[C@]3(O)C[C@H](OC(=O)[C@H](O)[C@@H](NC(=O)c4ccccc4)c4ccccc4)C(C)=C1C3(C)C)[C@]1(OC(C)=O)CO[C@@H]1C[C@@H]2O [Taxol®, paclitaxel, reference compound] was tested, and the “degree of tubulin polymerization (optical density at 350 nm)” value (tubulin) was “induced polymerization”.

For Cc1cc(C)n2c1C=C1C=CC(CCC(=O)NCc3ccc(-c4nncnn4)cc3)=[N+]1[B-]2(F)F [tetrazine-BODIPY FL], the “staining of intracellular structures” value (PtK2 rat kidney cells) was “tubular structures were clearly stained” and the “fluorescent background in control experiments” value (PtK2 rat kidney cells; tetrazine-BODIPY FL alone or with unmodified taxol) was “minimal fluorescent background”.

For CC(=O)OC1C(=O)C2(C)C(OC(=O)CCNC(=O)OC3CCC=CCCC3)CC3OCC3(OC(C)=O)C2C(OC(=O)c2ccccc2)C2(O)CC(OC(=O)C(O)C(NC(=O)c3ccccc3)c3ccccc3)C(C)=C1C2(C)C (stereo not drawn) [trans-cyclooctene taxol], the “staining of intracellular structures” value (PtK2 rat kidney cells) was “tubular structures were clearly stained” and the “degree of tubulin polymerization (optical density at 350 nm)” value (tubulin) was “induced polymerization”.
